Measurements from publication PMC9270327 (Communications Biology, 2022).
Where a name gives a salt, the structure may show the parent alone. Read-outs that look alike come from different tables or passages of the source.

How the values were obtained:
TMPRSS2 = TMPRSS2 (Homo sapiens, UniProt O15393); assay type: biochemical; parameters: purchased Creative BioMart (New York, USA) or LSBio (Seattle, USA); conditions: for TMPRSS2 activity, Mean (Fig. 2a): normalized, 0 nM = 100
From the text: Recombinant human TMPRSS2 was purchased from Creative BioMart (New York, USA) or LSBio (Seattle, USA), factor Xa was obtained from Bio-Techne GmbH (Wiesbaden, Germany). Recombinant human thrombin and matriptase protein were purchased from R&D Systems (Minneapolis, MN, USA).

Caco-2 cells = conditions: Fig. 6e
[1] = target: T1, TMPRSS2 expressed in HEK293T cells (Homo sapiens, UniProt O15393); assay: Inhibition of cellular TMPRSS2 activity on HEK293T cells transiently expressing TMPRSS2; assay type: cell-based; conditions: 2 h; for normalized fluorescence intensity, HEK293T TMPRSS2, Mean (Fig. 4b): corrected for mock-transfected cells
T1 construct: host or cells: HEK293T (ATCC)
Protocol: In total, 10,000 Caco-2 cells (ATCC) in 100 µL EMEM medium supplemented with 10% FBS, 100 U/mL penicillin, […] streptomycin, and 2 mM glutamine (all Invitrogen, Germany) were seeded per well in a 96-well plate and incubated at 37 °C for 4 days until full confluency of the cells. The cells were washed two times with PBS and EMEM medium without FBS was added. […] The fluorescence intensity was measured as described above. In all, 20,000 HEK293T cells (ATCC) were seeded in 100 µL DMEM supplemented with 10% FBS, 100 U/mL penicillin, […] streptomycin, and 2 mM glutamine. […] […] […] Fluorescence intensity was measured after 2 h at 37 °C as described above.

T1 sequence (O15393 whole entry): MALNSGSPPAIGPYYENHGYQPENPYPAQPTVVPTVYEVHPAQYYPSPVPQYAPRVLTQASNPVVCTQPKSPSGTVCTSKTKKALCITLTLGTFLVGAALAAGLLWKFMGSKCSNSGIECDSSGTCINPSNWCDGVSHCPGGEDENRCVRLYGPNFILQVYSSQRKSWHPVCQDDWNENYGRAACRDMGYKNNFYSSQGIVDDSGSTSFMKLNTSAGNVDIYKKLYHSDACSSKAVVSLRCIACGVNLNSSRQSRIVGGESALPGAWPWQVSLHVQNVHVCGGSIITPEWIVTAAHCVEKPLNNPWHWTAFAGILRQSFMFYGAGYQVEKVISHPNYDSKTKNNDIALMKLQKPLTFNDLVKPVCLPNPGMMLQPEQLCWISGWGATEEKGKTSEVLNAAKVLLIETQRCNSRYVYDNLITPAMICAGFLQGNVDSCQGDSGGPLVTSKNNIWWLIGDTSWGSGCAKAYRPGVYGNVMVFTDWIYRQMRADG
Chain of TMPRSS2 (O15393 whole entry): as above

| Molecule | TMPRSS2 activity, Mean (Fig. 2a) (TMPRSS2; 0.05 nM) | TMPRSS2 activity, Mean (Fig. 2a) (TMPRSS2; 0.5 nM) | TMPRSS2 activity, Mean (Fig. 2a) (TMPRSS2; 5 nM) | TMPRSS2 activity, Mean (Fig. 2a) (TMPRSS2; 50 nM) | TMPRSS2 activity, Mean (Fig. 2a) (TMPRSS2; 500 nM) | TMPRSS2 activity, Mean (Fig. 2a) (TMPRSS2; 5000 nM) | TMPRSS2 activity, Mean (Fig. 2a) (TMPRSS2; 50000 nM) | TMPRSS2 activity, Mean (Fig. 2a) (TMPRSS2; 500000 nM) | normalized fluorescence intensity, HEK293T TMPRSS2, Mean (Fig. 4b) ([1]; 0.5 nM) | normalized fluorescence intensity, HEK293T TMPRSS2, Mean (Fig. 4b) ([1]; 5 nM) | normalized fluorescence intensity, HEK293T TMPRSS2, Mean (Fig. 4b) ([1]; 50 nM) | normalized fluorescence intensity, HEK293T TMPRSS2, Mean (Fig. 4b) ([1]; 500 nM) | normalized fluorescence intensity, HEK293T TMPRSS2, Mean (Fig. 4b) ([1]; 5000 nM) | normalized fluorescence intensity, HEK293T TMPRSS2, Mean (Fig. 4b) ([1]; 50000 nM) | other results |
| --- | --- | --- | --- | --- | --- | --- | --- | --- | --- | --- | --- | --- | --- | --- | --- |
| CN(C)C(=O)COC(=O)Cc1ccc(OC(=O)c2ccc(NC(=N)N)cc2)cc1 [CM, camostat mesylate, reference compound] | 101.705 | 66.4773 | 16.1932 | 0.2841 | 0.5682 | -0.142 | 0.2841 | -0.4261 | 47.42 | 43.185 | 9.45 | 8.435 | 0.32 | -3.52 | Cell viability, Mean (0 nM = 100) (Caco-2 cells; compound 0.26 nM): 104.56; Cell viability, Mean (0 nM = 100) (Caco-2 cells; compound 1.28 nM): 104.124; Cell viability, Mean (0 nM = 100) (Caco-2 cells; compound 6.4 nM): 104.38; Cell viability, Mean (0 nM = 100) (Caco-2 cells; compound 32 nM): 101.009; Cell viability, Mean (0 nM = 100) (Caco-2 cells; compound 160 nM): 106.562; Cell viability, Mean (0 nM = 100) (Caco-2 cells; compound 800 nM): 101.849; Cell viability, Mean (0 nM = 100) (Caco-2 cells; compound 4000 nM): 104.127; Cell viability, Mean (0 nM = 100) (Caco-2 cells; compound 20000 nM): 103.706; Cell viability, Mean (0 nM = 100) (Caco-2 cells; compound 100000 nM): 93.2448 |
| ace-Arg-Pro-Arg-kbt [Compound 2] | 92 | 90.3158 | 62.9474 | 19.7895 | 3.789 | 0.6316 | 0.4211 | -1.895 | 60.175 | 47.265 | 34.28 | 7.97 | 0.76 | -5.7 | Ki (TMPRSS2; 30 min preincubation, substrate Boc-Gln-Ala-Arg-AMC, Ki from IC50 by Cheng–Prusoff): 3.8 nM; fold more active than FOY-251 against isolated TMPRSS2 (TMPRSS2; ratio of Ki values): 2–3 fold; IC50 ([1]; corrected for mock-transfected HEK293T cells): 3.5 nM |
